In PubChem BioAssay AID1194 (EPA DSSTox, 2008):
Active and inactive are the calls of the source.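 Rule for the calls: active = chemicals rated mutagenic or weakly mutagenic in the Salmonella bacterial test by one literature review, or positive overall by another; inconclusive = no clear call, values can overlap the other calls; inactive = the rest.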

Tested on: Salmonella typhimurium Ames mutagenicity, literature compiled
Assay: DSSTox (CPDBAS) Carcinogenic Potency Database Salmonella Mutagenicity
Description: The Carcinogenic Potency Database (CPDB) is a unique and widely used international resource of the results of over 6500 chronic, long-term animal cancer tests on over 1500 chemical substances. The CPDB provides easy access to the bioassay literature, with qualitative and quantitative analyses of both positive and negative experiments that have been published over the past 50 years in the general literature and by the National Cancer Institute/National Toxicology Program. The CPDB standardizes the diverse literature of cancer bioassays that vary widely in protocol, histopathological examination and nomenclature, and in the published author's choices of what information to provide in their papers. Results are reported in the CPDB for tests in rats, mice, hamsters, dogs, and nonhuman primates, and are based on the most positive result among all experiments for each sex-species. The DSSTox CPDBAS (all species) file incorporates data from the CPDB Summary Tables for the full list of over 1500 chemical substances tested in at least one species.
A chemical is classified within the CPDB as mutagenic, i.e. "active", in the Salmonella assay if it was evaluated overall as either "mutagenic" or "weakly mutagenic" by Zeiger [Zeiger, E. (1997) Genotoxicity Database. In: Gold and Zeiger, Eds. Handbook of Carcinogenic Potency and Genotoxicity Databases. Boca Raton, FL: CRC Press, pp. 687-729. http://potency.berkeley.edu/CRCbook.html] or as overall "positive" by the EPA Gene-Tox Program [Kier et al. (1986) Mutat. Res. 168: 69-240].

Row | SMILES | outcome
1 | O=C(N[C@H](CO)[C@H](O)c1ccc([N+](=O)[O-])cc1)C(Cl)Cl | inactive
2 | CCO | inactive; active
3 | Cc1noc(NS(=O)(=O)c2ccc(N)cc2)c1C | inactive; active
4 | ClC(Cl)=C(Cl)Cl | inactive; active
5 | COc1cc(/C=C/C(=O)CC(=O)/C=C/c2ccc(O)c(OC)c2)ccc1O | inactive
6 | CCc1ccc(C(c2ccc(CC)cc2)C(Cl)Cl)cc1 | active
7 | Nc1cc([N+](=O)[O-])ccc1C(=O)O | active
8 | CC(O)CN(CC(C)O)CC(C)O (stereo not given) | inactive; active
9 | CC(O)c1ccccc1 (stereo not given) | inactive; active
10 | ClC1=C(Cl)[C@@]2(Cl)[C@@H]3[C@@H](Cl)[C@H](Cl)C[C@@H]3C1(Cl)C2(Cl)Cl | inactive; active
11 | NC(=O)/C(=C\c1ccc([N+](=O)[O-])o1)c1ccco1 | active
12 | CCCNC(=O)NS(=O)(=O)c1ccc(Cl)cc1 | inactive; active
13 | C=CCOC(=O)c1ccccc1C(=O)OCC=C | inactive; active
14 | CC(O)CO (stereo not given) | inactive
15 | ClC1=C(Cl)[C@]2(Cl)[C@@H]3[C@H]4C[C@H]([C@@H]5O[C@H]45)[C@@H]3[C@@]1(Cl)C2(Cl)Cl | inactive; active
16 | Clc1ccc(C(c2ccccc2Cl)C(Cl)Cl)cc1 (stereo not given) | inactive
17 | O=[N+]([O-])c1cccc2ccccc12 | active
18 | CC1(C)COC1=O | active
19 | ClC1=C(Cl)C2(Cl)C3C(Cl)C=CC3C1(Cl)C2(Cl)Cl (stereo not given) | inactive; active
20 | NNCCO | active; inactive
21 | ClC(Cl)C(Cl)(Cl)Cl | inactive
22 | CC(=O)Nc1nnc(-c2ccc([N+](=O)[O-])o2)s1 | active
23 | CN(Cc1cnc2nc(N)nc(N)c2n1)c1ccc(C(=O)N[C@@H](CCC(=O)O)C(=O)O)cc1 | inactive
24 | COc1ccccc1[N+](=O)[O-] | active

Row | SMILES | outcome
25 | OC[P+](CO)(CO)CO | inactive; active
26 | O=C1CCC(=O)O1 | inactive; active
27 | O=[N+]([O-])c1ccc(Nc2ccc(Nc3ccccc3)c(S(=O)(=O)O)c2)c([N+](=O)[O-])c1 | active; inactive
28 | OCC(CO)(CBr)CBr | active
29 | Cc1cnc2ccc3c(nc(N)n3C)c2n1 | active
30 | COCCl | inactive; active
31 | C/C=C1/C[C@@H](C)[C@](O)(CO)C(=O)OCC2=CCN3CC[C@@H](OC1=O)[C@@H]23 | active; inactive
32 | O=S(=O)(O)c1c(N=Nc2c(O)ccc3ccccc23)ccc2ccccc12 | inactive; active
33 | CN(C)N=O | active
34 | NC1CCCCC1 | inactive; active
35 | NC(=S)Nc1cccc2ccccc12 | active; inactive
36 | NNCCc1ccccc1 | active; inactive
37 | C=CN1CCCC1=O | inactive
38 | O=C1OC(c2ccc(O)cc2)(c2ccc(O)cc2)c2ccccc21 | inactive
39 | Nc1ccc(NCCO)c([N+](=O)[O-])c1 | active
40 | Nc1ccc(O)c([N+](=O)[O-])c1 | active
41 | C=CC(=O)OCC | inactive
42 | Cc1ccc(S(=O)(=O)Oc2ccc(N=Nc3ccc(-c4ccc(N=Nc5c(O)ccc6cc(S(=O)(=O)O)cc(S(=O)(=O)O)c56)c(C)c4)cc3C)cc2)cc1 | active
43 | C=CCc1ccc(OC)c(OC)c1 | inactive; active
44 | CN(C)CNc1nnc(/C=C/c2ccc([N+](=O)[O-])o2)o1 | active
45 | C=O | active; inactive
46 | [CH3][Hg][Cl] | inactive; active
47 | C=CC(=O)NCO | inactive
48 | NCCc1ccc(O)c(O)c1 | active

Row | SMILES | outcome
49 | CC(=O)OCc1ccccc1 | inactive; active
50 | O=NN1CCC(=O)NC1=O | active; inactive
51 | Nc1ccc(Nc2ccccc2)cc1 | inactive; active
52 | COS(C)(=O)=O | active
53 | COc1ccc([N+](=O)[O-])cc1N=Nc1c(O)c(C(=O)Nc2cccc([N+](=O)[O-])c2)cc2ccccc12 | active; inactive
54 | CC1CN(N=O)CC(C)N1C(=O)c1ccccc1 (stereo not given) | inactive
55 | O=[N+]([O-])c1ccc(O)c([N+](=O)[O-])c1 | inactive
56 | O=c1c(O)c(-c2ccc(O)cc2)oc2cc(O)cc(O)c12 | active
57 | CNNC | active
58 | CN=[N+](C)[O-] | active
59 | CCCCC(CC)COC(=O)COc1ccc(Cl)cc1Cl (stereo not given) | inactive
60 | CCC[CH2][Sn]([CH2]CCC)([O]C(C)=O)[O]C(C)=O | inactive
61 | CCC1CO1 (stereo not given) | active
62 | O=S1(=O)CC=CC1 | inactive; active
63 | O=P(OCC(Br)CBr)(OCC(Br)CBr)OCC(Br)CBr (stereo not given) | active
64 | ClCc1ccccc1 | active
65 | Cc1cc(-c2ccc(N)c(C)c2)ccc1N | active; inactive
66 | NCCNc1cccc2ccccc12 | active
67 | Nc1ccc(N=Nc2ccc(-c3ccc(N=Nc4c(S(=O)(=O)O)cc5cc(S(=O)(=O)O)c(N=Nc6ccccc6)c(O)c5c4N)cc3)cc2)c(N)c1 | active
68 | Nc1cc(S(=O)(=O)O)cc2cc(S(=O)(=O)O)c(N=Nc3ccc(-c4ccc(N=Nc5c(S(=O)(=O)O)cc6cc(S(=O)(=O)O)cc(N)c6c5O)cc4)cc3)c(O)c12 | active
69 | O[C@@H]([C@H](O)[C@@H](O)CBr)[C@@H](O)CBr | active
70 | ClCc1cccnc1 | active; inactive
71 | OC(c1ccc(Cl)cc1)(c1ccc(Cl)cc1)C(Cl)(Cl)Cl | inactive; active
72 | O=C1c2cccc(O)c2C(=O)c2c(O)cccc21 | active

Row | SMILES | outcome
73 | O=C(Nc1nc(-c2ccc([N+](=O)[O-])o2)cs1)C(F)(F)F | active
74 | CCC1(c2ccccc2)C(=O)NC(=O)NC1=O | active
75 | O=[N+]([O-])c1ccc2c(c1)Cc1ccccc1-2 | active
76 | C=CCOC(=O)CC(C)C | inactive; active
77 | O=C1C=CC(=O)C=C1 | inactive; active
78 | CN(N=O)c1ccccn1 | active; inactive
79 | O=c1cc[nH]c(=O)[nH]1 | inactive; active
80 | CC(=O)[O][Hg][c]1ccccc1 | inactive; active
81 | CCCCC(CC)COC(=O)c1ccccc1C(=O)OCC(CC)CCCC (stereo not given) | inactive; active
82 | NC(=O)N(CC(=O)O)N=O | inactive
83 | CC1(C)S[C@@H]2[C@H](NC(=O)COc3ccccc3)C(=O)N2[C@H]1C(=O)O | inactive; active
84 | O=C(O)Cc1c[nH]c2ccccc12 | inactive
85 | CC(O)CNCC(C)O (stereo not given) | inactive
86 | Oc1ccc(Cl)cc1Cl | inactive; active
87 | CCCCOC(=O)c1ccccc1C(=O)OCc1ccccc1 | inactive
88 | Nc1ncc([N+](=O)[O-])s1 | active
89 | COC(=O)c1ccc(C(=O)OC)cc1 | inactive; active
90 | C=CCOCC1CO1 (stereo not given) | active
91 | C=C1C/C(=C/C)C(=O)O[C@@H]2CCN3CC=C(COC(=O)[C@@]1(O)CO)[C@H]23 | active; inactive
92 | ClC(Cl)=C(c1ccc(Cl)cc1)c1ccc(Cl)cc1 | inactive; active
93 | O=C(O)/C=C/c1ccc(O)c(O)c1 | inactive
94 | O=C1NC(=O)C(c2ccccc2)(c2ccccc2)N1 | inactive
95 | Nc1nc(N)c2nc(-c3ccccc3)c(N)nc2n1 | inactive; active
96 | Cc1cc(N=Nc2ccccc2C)ccc1N | active

Row | SMILES | outcome
97 | CC(CCl)OC(C)CCl (stereo not given) | active
98 | ClC(Cl)(Cl)Cl | inactive; active
99 | Cc1ccc2ncccc2c1 | active
100 | Cc1ccc(N)c(C)c1 | active
101 | COc1ccc(N)cc1N | active; inactive
102 | CC(=O)O[C@@H]1[C@@H](O)C2OC3C=C(C)C(=O)C(O)[C@@]3(CO)[C@]1(C)[C@]21CO1 (stereo not given in full) | inactive; active
103 | FC(F)OC(Cl)C(F)(F)F (stereo not given) | inactive
104 | COc1ccc(O)c(C(C)(C)C)c1 | inactive; active
105 | O=[N+]([O-])c1ccc(Oc2ccc(Cl)cc2Cl)cc1 | active
106 | CC(C)CN(N=O)C(=N)N[N+](=O)[O-] | active
107 | CCCCN(N=O)C(N)=O | active
108 | C=Cc1ccccc1 | active; inactive
109 | CN(C)C=O | inactive
110 | Nc1ccc(Oc2ccc(N)cc2)cc1 | active
111 | c1ccc2n[nH]nc2c1 | active; inactive
112 | O=C(O)c1ccc([N+](=O)[O-])cc1 | active
113 | C1CNCCN1 | inactive
114 | [O-]/[N+](=N\O)c1ccccc1 | active; inactive
115 | Nc1nc(N)nc(-c2ccc([N+](=O)[O-])o2)n1 | active
116 | O=S(=O)(O)c1ccc2c(N=Nc3ccc(S(=O)(=O)O)c4ccccc34)c(O)c(S(=O)(=O)O)cc2c1 | inactive
117 | O=C1OC(=O)c2ccccc21 | inactive; active
118 | C=CC | active; inactive
119 | Cc1ccc(N=C=O)cc1N=C=O | active
120 | OCCN(CCO)c1nc(-c2cccs2)nc2ccccc12 | inactive
